# Experimental data from patent US12036190B2, “Methods and compositions for the treatment of cytoplasmic glycogen storage disorders” (Duke University, priority 2015, dated 2024).
# “And” between values parts separate entries of the source, which are not always exact repeats. Identical values can stand only once. “Also recorded” adds a separate entry of the source.
# What was measured:
# [1] = test system: G6pc−/− mice; assay: Rapamycin treatment of GSD Ia (G6pc−/−) mice; format: in vivo; settings: GSD Ia mouse livers, which began at 7-fold the levels of wildtype livers
# Procedure: Candidate drugs for restoring autophagy in the GSD Ia liver were evaluated. Rapamycin is known to both have potent effects on activating autophagy as an mTORC1 inhibitor, and to regulate lipid metabolism due to its effect upon mTORC1. GSD Ia mice were treated with rapamycin daily for 7 days prior to evaluating effects upon autophagy and lipid accumulation in the liver.
# G6pc−/− mice were given intraperitoneal injections of 5 mg/kg rapamycin suspended in 10% DMSO/90% PBS daily for 7 days starting on day 5 of life.
# Treatment was sufficient to normalize G6pc−/− mice to the naturally low WT triglyceride levels.
# Hepatic glycogen content was further analyzed using PAS staining to stain for polysaccharides, including glycogen, in liver sections. […] This confirms our hypothesis that manipulating autophagy can reduce glycogen accumulation by breaking it down through alternate routes from the traditional one relying on G6Pase, bypassing the need for G6Pase in GSD Ia hepatocytes.
# [2] = test system: primary myoblasts from GSD IV mice; assay: rhGAA on primary myoblasts from GSD IV mice; format: cell-based, mouse
# Procedure: Primary myoblast cells were isolated from 7-day-old GSD IV mouse skeletal muscle. Early passage cells were seeded in 10-cm culture dishes with EMEM medium containing 10% FBS. When cells reached 90% confluence, rhGAA was added to the culture medium (final activity=1000 nmol/hr/ml). […]
# Reduction of glycogen deposition in GSD IV mouse myoblasts by rhGAA treatment was also confirmed by immunofluorescence staining using a mouse anti-glycogen monoclonal antibody ESG1A9mAb.
# [3] = test system: primary muscle cells from GSD IIIa patients; assay: rhGAA on primary muscle cells from GSD IIIa patients; format: cell-based, human; settings: GSD IIIa patient muscle cells
# Procedure: FIG. 32 illustrates an analysis of the skeletal muscle biopsies from two GSD IIIa patients, a person (Pt. 1) and a person (Pt. 2). […] (FIG. 32B) Under EM, occasional lysosomal glycogen 1 (identified at the end of arrow) was also seen in the myocytes (scale bar=1 μm). […] (FIG. 32E) GAA activity in normal and patient cells 48 h after adding recombinant human acid alpha-glucosidase (rhGAA, Myozyme*, alglucosidase alfa) treatment. […] The significance of differences between two different groups was assessed using the two-tailed, equal variance student T-test ([…]).
# [4] = test system: GSD IV mice; assay: rhGAA enzyme replacement therapy in GSD IV mice; format: in vivo, mouse
# Procedure: (§1) Methods: A short-term study was conducted to determine the minimum effective dose (MED) of rhGAA treatment with 3 dosages: 20 mg/kg (human equivalent dose, n=6), 40 mg/kg (n=9), and 100 mg/kg (n=8). Male GSD IV mice received weekly intravenous injections of rhGAA were conducted for 4 week starting at age of 10 weeks. A group of age-matched untreated mice (n=8) were used as controls. To prevent anaphylactic reactions, the animals were administered 25 mg/kg diphenhydramine (i.p.) 10-15 min prior to enzyme administration. All mice were sacrificed 48 hours after the last injection following overnight fasting. Fresh tissues were immediately frozen and stored at −80° C. until use for GAA activity and glycogen content analyses. Protein concentration was measured using BCA method.
# [5] = test system: GSD III mice; assay: rhGAA enzyme replacement therapy in GSD III mice; format: in vivo, mouse
# Procedure: as §1, with “GSD III mice were used to test 3 dosages” for “A short-term study was conducted”, “treatment:” for “treatment with 3 dosages:”, “(n=6),” for “(human equivalent dose, n=6),”, “(n=5),” for “(n=9),”, “(n=7). Weekly” for “(n=8). Male GSD IV mice received weekly”
# [6] = test system: patient with PRKAG2 pathogenic gene mutation; assay: Alglucosidase alfa ERT in a patient with PRKAG2 mutation; format: in vivo, human
# Description: A patient was born by caesarian section at 38 weeks gestation as a result of the nuchal cord being wrapped around their neck. The patient was noted to have hypotonia and generalized muscle weakness. They were are flexic and had feeding difficulties. The patient began developing severe lower respiratory infections which led to frequent admissions to the hospital. […] Following numerous recurrent pneumonias, and the history of muscle weakness, the patient's physicians raised Pompe disease as a potential diagnosis. […] Given the early findings of hypotonia and the low GAA enzyme activity, a diagnosis of non-classic infantile Pompe disease was made. The patient was initiated on ERT with alglucosdase alfa at a dose of 20 mg/kg every 2 weeks.
# […], the patient started ERT. They were belly crawling asymmetrically and was unable to achieve sitting from a prone or supine position. Due to weakness in their neck and trunk flexors, the patient consistently sat with their trunk completely collapsed in kyphotic position and their head propped up in capital extension in a chin poke position. […] They were able to crawl more efficiently, to achieve sitting independently from a prone or supine position, and to pull themself up into a standing posture without aid. […] […], the patient was able to walk independently with an age appropriate gait pattern and to climb small steps as well as jump off them without support. They were also able to transition independently into and out of any position, which helped them participate more fully in activities appropriate for their age.
# Baseline assessments were done which included tests for AST (44 IU/L; normal range: <45 IU/L), ALT (20 IU/L; normal range: 9-80 IU/L), along with PT measures looking at muscle strength and function measures. […] Upon examination, the patient has developed more defined calf muscles, along with an improvement of […] strength and power. […] has grown physically stronger and has not had episodes in which […] lacks energy for consecutive days, becomes completely floppy, and is unable to hold their head up properly following a seizure.
# At baseline, according to the MABC assessment, the patient achieved a Total Test Score of 68 ranking them in the 25th percentile. Five months after reinitiation of ERT, the patient achieved a Total Test Score of 73 on […] MABC assessment, ranking them in the 37th percentile. A minimal detectable change (MDC) for the MABC has been reported as 1.21 points, representing a true change in motor function. The results in this child show an increase of 5 points over 5 months, which is greater than the minimal important difference (MID) of the MABC, which has been reported as a change of 2.5 points shown over 6 months.
# [7] = rhGAA 1000 nmol/hr/ml, 24 hours
# [8] = weekly for 4 weeks at 20, 40 or 100 mg/kg, data not shown
# [9] = reassessment 5 months post ERT, initial 3
compound,measurement,setting,value
"CO[C@H]1C[C@@H]2CC[C@@H](C)[C@@](O)(O2)C(=O)C(=O)N2CCCC[C@H]2C(=O)O[C@H]([C@H](C)C[C@@H]2CC[C@@H](O)[C@H](OC)C2)CC(=O)[C@H](C)/C=C(\C)[C@@H](O)[C@@H](OC)C(=O)[C@H](C)C[C@H](C)/C=C/C=C/C=C/1C [Rapamycin, rapamycin]",reduction of hepatic triglycerides,[1],50%
"rhGAA: recombinant human acid alpha-glucosidase (rhGAA, Myozyme, alglucosidase alfa), FDA approved therapy for Pompe disease","reduction of glycogen (immunofluorescence, ESG1A9mAb)",[2]; 4 hours,obvious
same,"reduction of glycogen (immunofluorescence, ESG1A9mAb)",[2]; 24 hours,more evident
same,decrease of glycogen content,[2]; [7],24%
same,increase of GAA activity,[2]; [7],50%
same,glycogen content,[2]; versus untreated cells,significantly reduced glycogen content; also recorded: significantly (p<0.01) reduced
same,glycogen content,[3],significantly reduced glycogen levels; also recorded: significantly reduced glycogen content; also recorded: significantly reduced glycogen concentration
same,"GAA activity in heart, increase",[4]; 20 mg/kg,1.7 fold
same,glycogen content in tissues,[4]; 20 mg/kg,failed to reduce glycogen in any tissue; also recorded: not significant
same,"GAA activity in liver, increase over untreated controls",[4]; 20 mg/kg weekly IV for 4 weeks,29 folds
same,decrease of liver glycogen,[4]; 40 mg and 100 mg treatment,21-25%
same,"GAA activity in heart, increase",[4]; 40 mg/kg,2.8 fold
same,change of glycogen content in liver,[4]; 40 mg/kg,−21%
same,"GAA activity in liver, increase over untreated controls",[4]; 40 mg/kg weekly IV for 4 weeks,48 folds
same,liver/body weight ratio,"[4]; 40 mg/kg, untreated 5.8±0.2%, p<0.05",5.0±0.2%
same,plasma alanine aminotransferase (ALT),"[4]; 40 mg/kg, untreated 1029±87 U/L, p<0.01",650±32 U/L
same,plasma aspartate aminotransferase (AST),"[4]; 40 mg/kg, untreated 1059±93 U/L, p=0.074",849±50 U/L
same,"GAA activity in skeletal muscles, increase",[4]; 100 mg/kg,1.6 folds
same,change of glycogen content in liver,[4]; 100 mg/kg,−25%
same,"GAA activity in liver, increase over untreated controls",[4]; 100 mg/kg weekly IV for 4 weeks,67 folds
same,glycogen content in skeletal muscle,[4]; 40 and 100 mg/kg,not in any skeletal muscle
same,"GAA activity in quadriceps, increase","[4]; either dosage (20, 40 mg/kg)",negligible
same,"GAA activity in gastrocnemius, increase","[4]; either treated group (20, 40 mg/kg)",less than 1 fold
same,anti-GAA antibodies compared with those reported in GAA-KO mice,[4]; [8],significantly less
same,glycogen content in tissues,[5]; 20 mg treatment,did not affect glycogen content in any tissues
same,decrease of liver glycogen,[5]; 40 mg and 100 mg treatment,24-25%
same,glycogen content in heart,[5]; 40 mg and 100 mg treatments,significantly reduced glycogen contents
same,glycogen content in liver,[5]; 40 mg and 100 mg treatments,significantly reduced glycogen contents
same,ratio of liver/body weight,[5]; 40 mg and 100 mg treatments,reduced ratio of liver/body weight
same,"GAA enzyme uptake, order of GAA activity by tissue",[5]; weekly IV for 4 weeks,liver>heart>diaphragm>leg muscles
same,anti-GAA antibodies compared with those reported in GAA-KO mice,[5]; [8],significantly less
same,"neurological, occupational therapy and physical therapy reports",[6]; after five months of reinitiated ERT,significant improvement
same,gross motor abilities,"[6]; first ERT course, 20 mg/kg every 2 weeks, three months after initiation",began improving
same,Movement ABC increase of Total Score,[6]; over 5 months of ERT,5 points
same,Movement ABC percentile increase,[6]; over 5 months of ERT,12
same,Movement ABC Percentile,"[6]; re-assessment 5 months on ERT, pre-ERT 25th percentile",37 percentile and 37th percentile
same,Movement ABC Total Score,"[6]; re-assessment 5 months on ERT, pre-ERT 68",73
same,M-FUN Fine Motor Scaled Score,[6]; [9],5 (considered mild/borderline
same,M-FUN Gross Motor Scaled Score,[6]; [9],3 (considered very low/severe
same,M-FUN Visual Motor Scaled Score,"[6]; reassessment 5 months post ERT, initial 6",9 (considered “average” or
same,M-FUN Gross Motor Progress Score,"[6]; reassessment 5 months post ERT, initial 288",407
same,M-FUN Fine Motor Progress Score,"[6]; reassessment 5 months post ERT, initial 292",394
same,M-FUN Visual Motor Progress Score,"[6]; reassessment 5 months post ERT, initial 374",496
same,fatigue at assessment,[6]; reassessment at five months of ERT,less fatigue
